According to ChEMBL document CHEMBL1201862, “PubChem BioAssay data set” (2004):
The source made the active and inactive calls. Rule as the data show it, for most assays here: actives have a measured EC50 and inactives only a lower limit.

Experiments:
Large T antigen = Large T antigen (Simian virus 40, UniProt P03070); type: functional, Betapolyomavirus macacae;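 also: Confirmatory-stage PubChem screen for compounds that inhibit SV40 T antigen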
[1] = molecular target: T1, Rac GTPase-activating protein 1 (Homo sapiens, UniProt Q9H0H5); experiment: blockers of MgcRacGAP-driven Rac1 GTP hydrolysis – biochemical, ADP Hunter fluorescence, primary and confirmatory, confirmation (AID 624330); type: functional
T1 sequence (Q9H0H5 whole entry): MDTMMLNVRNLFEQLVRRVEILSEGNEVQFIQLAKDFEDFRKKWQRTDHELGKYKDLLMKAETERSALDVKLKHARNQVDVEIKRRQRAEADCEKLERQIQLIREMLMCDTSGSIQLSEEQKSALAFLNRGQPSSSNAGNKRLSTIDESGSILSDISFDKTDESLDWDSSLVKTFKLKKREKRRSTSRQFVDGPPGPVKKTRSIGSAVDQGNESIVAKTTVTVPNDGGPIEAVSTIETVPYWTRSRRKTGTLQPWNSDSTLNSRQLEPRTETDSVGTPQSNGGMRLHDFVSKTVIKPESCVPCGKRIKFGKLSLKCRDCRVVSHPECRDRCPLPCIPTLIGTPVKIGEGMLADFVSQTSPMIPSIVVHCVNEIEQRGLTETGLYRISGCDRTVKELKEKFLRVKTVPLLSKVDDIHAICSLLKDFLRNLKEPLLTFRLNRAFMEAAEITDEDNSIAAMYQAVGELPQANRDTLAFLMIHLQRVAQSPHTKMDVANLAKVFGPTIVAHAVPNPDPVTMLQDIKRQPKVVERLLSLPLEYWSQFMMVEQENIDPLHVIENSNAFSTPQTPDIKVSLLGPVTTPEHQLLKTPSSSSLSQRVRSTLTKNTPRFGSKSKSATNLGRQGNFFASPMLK

[2] = NIH-3T3 fibroblast cytotoxicity, dose response, cytotoxicity control, cell-based, fluorescence, Alamar Blue, secondary assay (AID 2327); type: functional;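 also: NIH-3T3 mouse fibroblasts cultured with fluconazole at 8 µg/mL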
[3] = fluconazole-exposed Candida albicans growth modulators – fluorescence, retest, confirmation (AID 2467); type: functional, cell-based
[4] = molecular target: T2, Heat shock factor protein 1 (Mus musculus, UniProt P38532); experiment: enhancement of HSF1-driven luciferase signal – cell-based, NIH3T3, luminescence, dose retest, confirmation (AID 435004); type: functional;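 also: stress induced by proteasome inhibitor MG132 added 30 min after compound; luciferase reporter driven by HSF1 response element in NIH3T3 cells; actives raise luminescence as potentiators of the MG132 stress response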
T2 sequence (P38532 whole entry): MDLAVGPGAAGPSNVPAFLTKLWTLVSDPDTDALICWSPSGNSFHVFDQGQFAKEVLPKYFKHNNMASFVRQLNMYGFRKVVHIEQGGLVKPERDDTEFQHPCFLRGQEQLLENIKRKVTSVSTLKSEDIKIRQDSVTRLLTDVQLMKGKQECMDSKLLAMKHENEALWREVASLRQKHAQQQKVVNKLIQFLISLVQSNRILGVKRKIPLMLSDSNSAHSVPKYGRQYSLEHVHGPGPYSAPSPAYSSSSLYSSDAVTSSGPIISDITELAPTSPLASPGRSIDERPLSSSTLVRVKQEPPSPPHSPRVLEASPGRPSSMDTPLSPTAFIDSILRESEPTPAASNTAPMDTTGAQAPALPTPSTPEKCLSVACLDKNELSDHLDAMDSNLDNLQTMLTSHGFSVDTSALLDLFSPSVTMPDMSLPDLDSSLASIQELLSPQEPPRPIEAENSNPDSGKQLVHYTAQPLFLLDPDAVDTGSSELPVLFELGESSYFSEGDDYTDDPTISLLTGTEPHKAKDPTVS

Streptokinase A = molecular target: T3, Streptokinase A (Streptococcus pyogenes serotype M1, UniProt P10520); experiment: viability-normalized secreted streptokinase activity reduction – plasminogen activation absorbance, OD405, dose response (AID 1914); type: functional, Streptococcus pyogenes M1 GAS;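 also: secreted streptokinase activity via plasminogen activation per viability signal from cell pellet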
T3 sequence (P10520 whole entry): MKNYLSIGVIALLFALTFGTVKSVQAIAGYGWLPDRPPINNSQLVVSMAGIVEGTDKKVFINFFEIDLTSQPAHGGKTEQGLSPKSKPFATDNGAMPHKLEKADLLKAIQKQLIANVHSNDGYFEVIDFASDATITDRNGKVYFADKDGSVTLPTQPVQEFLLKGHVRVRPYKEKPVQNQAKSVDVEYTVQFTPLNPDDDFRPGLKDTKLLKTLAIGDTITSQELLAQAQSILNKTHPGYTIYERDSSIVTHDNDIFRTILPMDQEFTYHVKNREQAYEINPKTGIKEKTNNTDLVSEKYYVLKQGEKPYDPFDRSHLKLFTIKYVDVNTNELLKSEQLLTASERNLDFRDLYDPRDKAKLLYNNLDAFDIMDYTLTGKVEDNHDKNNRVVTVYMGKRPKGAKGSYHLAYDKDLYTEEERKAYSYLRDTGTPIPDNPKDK

[5] = system: Streptococcus sp. 'group A'; experiment: Streptococcus pyogenes SK(-)GAS viability under kanamycin – luminescence, BacTiterGlo, confirmation, counter-screen for streptokinase expression inhibitor project, dose response (AID 1900); type: functional, organism-based
Streptococcus = experiment: GAS UMAA2166 growth inhibition – luminescence, BacTiterGlo, counter-screen for streptokinase expression inhibitor project, dose response (AID 1915); type: functional, organism-based;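 also: potency for reduction of bacterial viability or growth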
[6] = Luminescence Cell-Based Dose Retest to Confirm Inhibitors of Cancer Stem Cells. [Related pubchem assays (depositor defined):AID2717, AID2721]; type: functional; details: Homo sapiens
Protein RecA = molecular target: T4, Protein RecA (Mycobacterium tuberculosis, UniProt P9WHJ3); experiment: Fluorescence Cell-Free Homogeneous Dose Retest to Identify Inhibitors of RecA-Intein Splicing Activity. [Related pubchem assays (depositor defined):AID2097, AID2223, AID489010, AID492950]; type: functional
T4 sequence (P9WHJ3 whole entry): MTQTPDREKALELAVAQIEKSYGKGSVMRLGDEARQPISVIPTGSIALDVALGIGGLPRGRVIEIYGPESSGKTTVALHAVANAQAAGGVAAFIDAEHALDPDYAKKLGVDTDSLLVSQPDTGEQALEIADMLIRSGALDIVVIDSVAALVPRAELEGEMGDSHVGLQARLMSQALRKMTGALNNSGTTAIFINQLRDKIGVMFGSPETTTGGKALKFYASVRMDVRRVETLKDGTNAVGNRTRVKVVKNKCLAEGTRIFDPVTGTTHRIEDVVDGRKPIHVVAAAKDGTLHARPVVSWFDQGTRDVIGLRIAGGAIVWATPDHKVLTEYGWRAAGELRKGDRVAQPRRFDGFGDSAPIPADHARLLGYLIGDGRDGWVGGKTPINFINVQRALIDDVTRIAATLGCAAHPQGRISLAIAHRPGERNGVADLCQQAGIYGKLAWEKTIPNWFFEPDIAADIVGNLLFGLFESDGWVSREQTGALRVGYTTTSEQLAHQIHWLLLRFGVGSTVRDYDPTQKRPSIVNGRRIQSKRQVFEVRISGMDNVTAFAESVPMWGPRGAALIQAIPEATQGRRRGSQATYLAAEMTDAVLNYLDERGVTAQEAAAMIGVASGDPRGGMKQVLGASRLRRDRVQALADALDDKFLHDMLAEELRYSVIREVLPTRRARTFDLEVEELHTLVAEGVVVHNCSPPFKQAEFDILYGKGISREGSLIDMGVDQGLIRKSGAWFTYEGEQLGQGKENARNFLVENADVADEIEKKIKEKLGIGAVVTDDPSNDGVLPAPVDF

INS1 = experiment: INS-1E survival protection against cytokine death – cell-based, luminescence, retest, dose response (AID 449756); type: functional; details: Rattus norvegicus;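 also: cell death triggered by IL-1 beta plus TNF-alpha plus IFN-gamma mixture; protective hits raise ATP signal compared with cytokine alone wells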
[7] = NIH3T3 cell viability loss – ATP luminescence, mouse fibroblasts, counter-screen, dose response (AID 2010); type: functional, cell-based;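 also: cells exposed to compound for about 90 hours before reading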
[8] = molecular target: T5, Replicative DNA helicase DnaB (Mycobacterium tuberculosis, UniProt P9WMR3); experiment: DnaB intein splicing inhibitors, dose response, biochemical, cell-free fluorescence (AID 449749); type: functional
T5 sequence (P9WMR3 whole entry): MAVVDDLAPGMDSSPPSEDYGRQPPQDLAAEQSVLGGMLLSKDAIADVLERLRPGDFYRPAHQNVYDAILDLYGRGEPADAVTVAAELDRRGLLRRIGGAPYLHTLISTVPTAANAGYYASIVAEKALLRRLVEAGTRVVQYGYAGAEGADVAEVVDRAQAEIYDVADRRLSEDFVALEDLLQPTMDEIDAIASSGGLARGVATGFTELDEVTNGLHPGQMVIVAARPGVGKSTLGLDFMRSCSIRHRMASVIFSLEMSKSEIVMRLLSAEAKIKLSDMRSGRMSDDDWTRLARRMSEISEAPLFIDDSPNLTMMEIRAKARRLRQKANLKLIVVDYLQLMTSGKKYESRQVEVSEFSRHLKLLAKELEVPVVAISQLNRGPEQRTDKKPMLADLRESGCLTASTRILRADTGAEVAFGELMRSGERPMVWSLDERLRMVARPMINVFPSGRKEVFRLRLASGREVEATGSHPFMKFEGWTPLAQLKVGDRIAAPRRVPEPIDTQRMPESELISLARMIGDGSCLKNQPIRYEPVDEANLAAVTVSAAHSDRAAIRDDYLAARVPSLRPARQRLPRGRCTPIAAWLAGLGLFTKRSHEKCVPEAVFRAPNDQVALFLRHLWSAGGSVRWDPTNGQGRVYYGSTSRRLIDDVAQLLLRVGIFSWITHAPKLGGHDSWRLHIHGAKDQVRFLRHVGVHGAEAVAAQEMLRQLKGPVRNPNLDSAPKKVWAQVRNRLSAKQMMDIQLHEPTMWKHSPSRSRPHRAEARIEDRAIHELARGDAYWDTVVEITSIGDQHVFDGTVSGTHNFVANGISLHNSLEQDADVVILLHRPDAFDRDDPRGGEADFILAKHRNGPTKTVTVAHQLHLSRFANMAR

[9] = Trypanosoma cruzi growth suppression in host cells – NIH3T3 host cells, beta-gal luminescence, confirmation (AID 2044); type: functional, cell-based;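 also: intracellular parasites grown in NIH/3T3 mouse fibroblasts as host cells; luminescent beta-galactosidase reporter signal from transgenic T. cruzi replicating inside host cells; inhibitors lower the luminescence signal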

Sequence of Large T antigen (P03070 whole entry): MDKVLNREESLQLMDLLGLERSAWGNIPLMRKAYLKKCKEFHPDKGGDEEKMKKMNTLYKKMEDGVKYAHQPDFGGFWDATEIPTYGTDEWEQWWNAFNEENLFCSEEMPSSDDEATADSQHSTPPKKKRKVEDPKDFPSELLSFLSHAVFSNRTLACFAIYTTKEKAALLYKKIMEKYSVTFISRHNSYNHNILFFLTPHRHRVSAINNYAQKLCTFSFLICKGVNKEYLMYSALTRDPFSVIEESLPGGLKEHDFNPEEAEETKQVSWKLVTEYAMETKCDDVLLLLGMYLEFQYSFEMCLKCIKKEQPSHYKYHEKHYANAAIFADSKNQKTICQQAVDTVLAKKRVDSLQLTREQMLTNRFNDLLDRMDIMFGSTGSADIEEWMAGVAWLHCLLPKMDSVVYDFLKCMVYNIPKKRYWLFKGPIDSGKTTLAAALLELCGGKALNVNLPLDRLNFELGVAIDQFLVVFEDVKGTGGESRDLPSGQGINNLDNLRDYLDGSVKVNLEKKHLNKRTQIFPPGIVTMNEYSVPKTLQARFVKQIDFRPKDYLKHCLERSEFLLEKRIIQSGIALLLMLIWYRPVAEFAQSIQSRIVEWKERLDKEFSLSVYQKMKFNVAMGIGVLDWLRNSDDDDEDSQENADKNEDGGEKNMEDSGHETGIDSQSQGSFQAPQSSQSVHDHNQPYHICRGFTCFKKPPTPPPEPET

Which IC50 (Large T antigen) does the source give for `COc1cc(/C=N/NC(=O)CC2C(=O)NN=C2C)ccc1O` (stereo not drawn) here?
The IC50 was 11.5 µM (active).

And the IC50 [1]?
Its IC50 is 53.7 µM (active).

With `CC(=O)Oc1cc2oc(=O)cc(C)c2cc1OC(C)=O` as the molecule, how does the IC50 (Large T antigen) read?
Its IC50 is 21.4 µM (active).

For `COc1ccc2c(c1)C(=O)Cc1ccccc1O2`, which IC50 (Large T antigen) is on record?
The IC50 was 86.7 µM (active).

With `CCCCn1c(SCC(=O)Nc2cccc(OC)c2)nc2ccc(N3CCOCC3)cc2c1=O` as the molecule, how does the EC50 [2] read?
Its EC50 is 141 µM (active).

What about the EC50 [3] of the same molecule?
Its EC50 is > 38 µM (not active).

With `CC(=O)NCCc1nc2ccccc2n1CCOc1cccc(C)c1` as the molecule, how does the EC50 [4] read?
The EC50 was > 260 µM (inactive).

For `COc1ccc(S(=O)(=O)N[C@@H](Cc2ccccc2)C(=O)N2CC[C@@]3(O)CCCC[C@H]3C2)cc1`, which EC50 [4] is on record?
The EC50 was > 260 µM (inactive).

Which EC50 (Streptokinase A) does the source give for `CCOC(=O)c1[nH]c2ccc(F)cc2c1NC(=O)c1ccccc1C(=O)O` here?
Its EC50 is > 150 µM (not active).

And the EC50 [5]?
The EC50 was > 150 µM (not active).

And the EC50 [2]?
Its EC50 is > 150 µM (inconclusive).

And the EC50 (Streptococcus)?
Its EC50 is > 150 µM (not active).

And the EC50 [3]?
The EC50 was > 38 µM (not active).

For `Cc1cc(C(=O)NNc2ccc(Cl)cc2)no1`, which EC50 [2] is on record?
The EC50 was 2.59 µM (active).

And the EC50 [3]?
Its EC50 is 0.819 µM (active).

What about the AC50 [6] of the same molecule?
Its AC50 is 1.35 µM (active).

With `CN1C(=O)C2C(c3ccc(N(C)C)cc3)=NN(Cc3ccccc3)C2C1=O` (stereo not drawn) as the molecule, how does the IC50 (Large T antigen) read?
Its IC50 is 19 µM (active).

What about the IC50 [1] of the same molecule?
Its IC50 is 43 µM (active).

And the EC50 [4]?
Its EC50 is 40.3 µM (active).

With `O=C1ON=C(c2ccccc2)/C1=C\c1ccco1` as the molecule, how does the IC50 (Large T antigen) read?
The IC50 was 28.2 µM (active).

Which EC50 (Protein RecA) does the source give for `CC(C)(C)c1ccc(/C=C(\c2nc3ccccc3[nH]2)S(=O)(=O)c2ccccc2)cc1` here?
Its EC50 is 2.77 µM (active).

And the AC50 (INS1)?
The AC50 was 6.71 µM (active).

What about the EC50 [7] of the same molecule?
Its EC50 is > 60 µM (not active).

What about the AC50 [8] of the same molecule?
The AC50 was 2.19 µM (active).

And the EC50 [9]?
Its EC50 is 0.995 µM (active).

And the AC50 [6]?
Its AC50 is 1.36 µM (active).

What does the source list for `COCCSc1nnc(NC(=O)C2CC(=O)N(c3ccc(C)cc3)C2)s1` (stereo not drawn)?
EC50 [2]: > 160 µM (inactive); EC50 [3]: > 38 µM (not active)
